Results on 36 molecules are retold here after patent US8822468B2 (Novartis AG, priority 2008, dated 2014).

By IC50 is commonly meant the midpoint of a concentration-inhibition curve.

T1 sequence (P08581 969-1390): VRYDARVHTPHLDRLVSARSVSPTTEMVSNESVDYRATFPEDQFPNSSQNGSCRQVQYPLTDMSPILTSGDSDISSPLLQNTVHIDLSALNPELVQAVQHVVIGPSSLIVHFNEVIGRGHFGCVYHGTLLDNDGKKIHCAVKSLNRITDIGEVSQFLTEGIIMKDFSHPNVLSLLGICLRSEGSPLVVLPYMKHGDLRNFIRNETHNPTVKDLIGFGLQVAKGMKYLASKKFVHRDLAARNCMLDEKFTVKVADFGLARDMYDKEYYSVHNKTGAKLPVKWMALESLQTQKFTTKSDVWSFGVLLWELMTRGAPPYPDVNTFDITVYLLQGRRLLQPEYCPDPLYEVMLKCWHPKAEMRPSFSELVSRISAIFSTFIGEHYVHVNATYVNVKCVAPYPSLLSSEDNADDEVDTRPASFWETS

This assay addresses T1, cMET receptor tyrosine kinase (GST-cMET (969-1390)) (Homo sapiens, UniProt P08581).
T1 construct: made in house
The assay is described as follows: EPK cMET profiling assay (LanthaScreen TR-FRET antibody based kinase phosphorylation assay). It is filed as biochemical. Particulars: purified recombinant GST-cMET (969-1390), 2 μM ATP, 50 nM Fluorescein-PolyEAY, 60 minutes at room temperature; read-out: c-Met IC50. An outline of the steps:
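GST-cMET cytoplasmic domain (969-1390), 0.3 nM, phosphorylated 50 nM fluorescein-PolyEAY with 2 µM ATP, Mg2+/Mn2+, 0.6% DMSO, 60 min at room temperature. Stopped with EDTA; Tb-PY20 antibody TR-FRET single end-point read. Final compound concentrations 10 to 0.003 µM, 8 points.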
As to `C[C@@H](c1ccc2[nH]ncc2c1)c1cnc2ccc(-c3cnn(C)c3)nn12` [Example 195, 3-[(S)-1-(2H-Indazol-5-yl)-ethyl]-6-(1-methyl-1H-pyrazol-4-yl)-imidazo[1,2-b]pyridazine], the IC50 was 14 nM.

`C[C@@H](c1ccc2c(cnn2C)c1)c1cnc2ccc(-c3cnn(C)c3)nn12` [Example 196, 3-[(S)-1-(1-Methyl-1H-indazol-5-yl)-ethyl]-6-(1-methyl-1H-pyrazol-4-yl)-imidazo[1,2-b]pyridazine]: the IC50 turned out to be 36 nM. As for `FC(F)(c1ccc2ncccc2c1)c1cnc2ccc(-c3cnn(C4CCNCC4)c3)nn12` [Example 197, 6-{Difluoro-[6-(1-piperidin-4-yl-1H-pyrazol-4-yl)-imidazo[1,2-b]pyridazin-3-yl]-methyl}-quinoline], the IC50 was 61 nM.

Regarding `Cn1cc(-c2ccc3ncc(Cc4c[nH]c5ncccc45)n3n2)cn1` [Example 199, 6-(1-Methyl-1H-pyrazol-4-yl)-3-(1H-pyrrolo[2,3-b]pyridin-3-ylmethyl)-imidazo[1,2-b]pyridazine], the IC50 is 35.5 nM.

Consider `Cn1cc(-c2ccc3ncc(Cc4ccc5ncn(C)c5c4)n3n2)cn1` [Example 200, 3-(3-Methyl-3H-benzoimidazol-5-ylmethyl)-6-(1-methyl-1H-pyrazol-4-yl)-imidazo[1,2-b]pyridazine], for which the IC50 came out at 23 nM. In the case of `Cn1cc(-c2ccc3ncc(Cc4ccc(O)cc4F)n3n2)cn1` [Example 202, 3-Fluoro-4-[6-(1-methyl-1H-pyrazol-4-yl)-imidazo[1,2-b]pyridazin-3-ylmethyl]-phenol], the half-inhibitory concentration (IC50) was 68 nM. Consider `Cn1cc(-c2ccc3ncc(Cc4cn5ccnc5cc4F)n3n2)cn1` [Example 205, 3-(7-Fluoro-imidazo[1,2-a]pyridin-6-ylmethyl)-6-(1-methyl-1H-pyrazol-4-yl)-imidazo[1,2-b]pyridazine], for which the half-maximal inhibitory concentration (IC50) amounted to 47 nM. For `N#Cc1ccc2ncc(Cc3ccc4ncccc4c3)n2n1` [Example 208, 3-Quinolin-6-ylmethyl-imidazo[1,2-b]pyridazine-6-carbonitrile], the concentration for half-maximal inhibition (IC50) is 52 nM. For the molecule `OCCn1cc(-c2ccc3ncc(Cc4ccc5ncccc5c4)n3n2)cn1` [Example 210, 2-[4-(3-Quinolin-6-ylmethyl-imidazo[1,2-b]pyridazin-6-yl)-pyrazol-1-yl]-ethanol], the concentration for half-maximal inhibition (IC50) was 52 nM. For the molecule `CCn1cc(-c2ccc3ncc(Cc4ccc5ncccc5c4)n3n2)cn1` [Example 211, 6-[6-(1-Ethyl-1H-pyrazol-4-yl)-imidazo[1,2-b]pyridazin-3-ylmethyl]-quinoline], the IC50 stood at 86 nM. Consider `c1cnc2ccc(Cc3cnc4ccc(-c5cn[nH]c5)nn34)cc2c1` [Example 212, 6-[6-(1H-Pyrazol-4-yl)-imidazo[1,2-b]pyridazin-3-ylmethyl]-quinoline], for which the IC50 came out at 54 nM. In the case of `OCCn1cc(-c2ccc3ncc(Cc4ccc5nccn5c4)n3n2)cn1` [Example 215, 2-[4-(3-Imidazo[1,2-a]pyridin-6-ylmethyl-imidazo[1,2-b]pyridazin-6-yl)-pyrazol-1-yl]-ethanol] it was 130 nM; in that of `Cn1cnc2ccc(Cc3cnc4ccc(-c5cnn(CCO)c5)nn34)cc21` [Example 217, 2-{4-[3-(3-Methyl-3H-benzoimidazol-5-ylmethyl)-imidazo[1,2-b]pyridazin-6-yl]-pyrazol-1-yl}-ethanol], 84 nM. As for `OCCn1cc(-c2ccc3ncc(Cc4ccc(O)cc4F)n3n2)cn1` [Example 219, 3-Fluoro-4-{6-[1-(2-hydroxy-ethyl)-1H-pyrazol-4-yl]-imidazo[1,2-b]pyridazin-3-ylmethyl}-phenol], the concentration for half-maximal inhibition (IC50) is 120 nM. For the molecule `OCCn1cc(-c2ccc3ncc(Cc4ccc(O)cc4)n3n2)cn1` [Example 220, 4-{6-[1-(2-Hydroxy-ethyl)-1H-pyrazol-4-yl]-imidazo[1,2-b]pyridazin-3-ylmethyl}-phenol], the IC50 amounted to 330 nM.

Regarding `CC(c1ccc2ncccc2c1Cl)c1cnc2ccc(-c3cnn(C4CCN(C)CC4)c3)nn12` (stereo not drawn) [Example 224, 5-Chloro-6-(1-{6-[1-(1-methyl-piperidin-4-yl)-1H-pyrazol-4-yl]-imidazo[1,2-b]pyridazin-3-yl}-ethyl)-quinoline], the 50% inhibitory concentration (IC50) was found to be 28 nM. Take `OCCn1cc(-c2ccc3ncc(Cc4ccc5ncccc5c4Cl)n3n2)cn1` [Example 226, 2-{4-[3-(5-Chloro-quinolin-6-ylmethyl)-imidazo[1,2-b]pyridazin-6-yl]-pyrazol-1-yl}-ethanol]: the half-maximal inhibitory concentration (IC50) was found to be 25 nM. On to `Clc1c(Cc2cnc3ccc(-c4cnn(C5CCNCC5)c4)nn23)ccc2ncccc12` [Example 227, 5-Chloro-6-[6-(1-piperidin-4-yl-1H-pyrazol-4-yl)-imidazo[1,2-b]pyridazin-3-ylmethyl]-quinoline], for which the half-inhibitory concentration (IC50) worked out at 78 nM. Take `CN1CCC(n2cc(-c3ccc4ncc(Cc5ccc6ncccc6c5Cl)n4n3)cn2)CC1` [Example 228, 5-Chloro-6-{6-[1-(1-methyl-piperidin-4-yl)-1H-pyrazol-4-yl]-imidazo[1,2-b]pyridazin-3-ylmethyl}-quinoline]: the IC50 came to 99 nM. For `CC(=O)N1CCC(n2cc(-c3ccc4ncc(Cc5cc6cccnc6cc5F)n4n3)cn2)CC1` [Example 230, 1-(4-{4-[3-(7-Fluoro-quinolin-6-ylmethyl)-imidazo[1,2-b]pyridazin-6-yl]-pyrazol-1-yl}-piperidin-1-yl)-ethanone], the IC50 is 27 nM. The figure for `Fc1cc2ncccc2cc1Cc1cnc2ccc(-c3cnn(CCN4CCCC4)c3)nn12` [Example 231, 7-Fluoro-6-{6-[1-(2-pyrrolidin-1-yl-ethyl)-1H-pyrazol-4-yl]-imidazo[1,2-b]pyridazin-3-ylmethyl}-quinoline] is 26 nM; for `Fc1cc2ncccc2cc1Cc1cnc2ccc(-c3cnn(CCN4CCOCC4)c3)nn12` [Example 232, 7-Fluoro-6-{6-[1-(2-morpholin-4-yl-ethyl)-1H-pyrazol-4-yl]-imidazo[1,2-b]pyridazin-3-ylmethyl}-quinoline] it is 66 nM; for `COCCOCCn1cc(-c2ccc3ncc(Cc4cc5cccnc5cc4F)n3n2)cn1` [Example 233, 7-Fluoro-6-(6-{1-[2-(2-methoxy-ethoxy)-ethyl]-1H-pyrazol-4-yl}-imidazo[1,2-b]pyridazin-3-ylmethyl)-quinoline] it is 120 nM. In the case of `COCCn1cc(-c2ccc3ncc(Cc4cc5cccnc5cc4F)n3n2)cn1` [Example 234, 7-Fluoro-6-{6-[1-(2-methoxy-ethyl)-1H-pyrazol-4-yl]-imidazo[1,2-b]pyridazin-3-ylmethyl}-quinoline], the 50% inhibitory concentration (IC50) was found to be 110 nM. In the case of `c1cnc2ccc(Cc3cnc4ccc(-c5cnn(CCN6CCC6)c5)nn34)cc2c1` [Example 235, 6-{6-[1-(2-Azetidin-1-yl-ethyl)-1H-pyrazol-4-yl]-imidazo[1,2-b]pyridazin-3-ylmethyl}-quinoline], the IC50 was found to be 220 nM. On to `c1cnc2ccc(Cc3cnc4ccc(-c5cnn(CCN6CCCC6)c5)nn34)cc2c1` [Example 236, 6-{6-[1-(2-Pyrrolidin-1-yl-ethyl)-1H-pyrazol-4-yl]-imidazo[1,2-b]pyridazin-3-ylmethyl}-quinoline], for which the IC50 turned out to be 370 nM.

On to `CNCCn1cc(-c2ccc3ncc(Cc4ccc5ncccc5c4)n3n2)cn1` [Example 237, Methyl-{2-[4-(3-quinolin-6-ylmethyl-imidazo[1,2-b]pyridazin-6-yl)-pyrazol-1-yl]-ethyl}-amine], for which the 50% inhibitory concentration (IC50) stood at 170 nM. Turning to `CN1CCC(n2cc(-c3ccc4ncc(Cc5ccc6ncccc6c5)n4n3)cn2)CC1` [Example 238, 6-{6-[1-(1-Methyl-piperidin-4-yl)-1H-pyrazol-4-yl]-imidazo[1,2-b]pyridazin-3-ylmethyl}-quinoline], the IC50 came out at 230 nM. The figure for `C[C@@H](c1ccc2ncccc2c1)c1cnc2ccc(-c3cnn(C4CCN(C)CC4)c3)nn12` [Example 239, 6-((S)-1-{6-[1-(1-Methyl-piperidin-4-yl)-1H-pyrazol-4-yl]-imidazo[1,2-b]pyridazin-3-yl}-ethyl)quinoline] is 31 nM; for `C[C@@H](c1ccc2ncccc2c1)c1cnc2ccc(-c3cn[nH]c3)nn12` [Example 240, 6-{(S)-1-[6-(1H-Pyrazol-4-yl)-imidazo[1,2-b]pyridazin-3-yl]-ethyl}-quinoline] it is 8.4 nM. On to `Cn1cc(-c2ccc3ncc(Cc4cc5cccnc5cc4Cl)n3n2)cn1` [Example 241, 7-Chloro-6-[6-(1-methyl-1H-pyrazol-4-yl)-imidazo[1,2-b]pyridazin-3-ylmethyl]-quinoline], for which the IC50 stood at 37.5 nM. The figure for `CCn1cc(-c2ccc3ncc(Cc4cc5cccnc5cc4Cl)n3n2)cn1` [Example 242, 7-Chloro-6-[6-(1-ethyl-1H-pyrazol-4-yl)-imidazo[1,2-b]pyridazin-3-ylmethyl]-quinoline] is 86 nM. `OCCn1cc(-c2ccc3ncc(Cc4cc5cccnc5cc4Cl)n3n2)cn1` [Example 243, 2-{4-[3-(7-Chloro-quinolin-6-ylmethyl)-imidazo[1,2-b]pyridazin-6-yl]-pyrazol-1-yl}-ethanol]: the IC50 came out at 37 nM.

Take `CC(C)(C)OC(=O)N1CCC(n2cc(-c3ccc4ncc(Cc5c(F)cc6ncccc6c5F)n4n3)cn2)CC1` [Example 244, 4-{4-[3-(5,7-Difluoro-quinolin-6-ylmethyl)-imidazo[1,2-b]pyridazin-6-yl]-pyrazol-1-yl}-piperidine-1-carboxylic acid tert-butyl ester]: the IC50 came out at 87 nM. Consider `Fc1cc2ncccc2c(F)c1Cc1cnc2ccc(-c3cnn(C4CCNCC4)c3)nn12` [Example 245, 5,7-Difluoro-6-[6-(1-piperidin-4-yl-1H-pyrazol-4-yl)-imidazo[1,2-b]pyridazin-3-ylmethyl]-quinoline], for which the IC50 came to 44 nM. With `CN1CCC(n2cc(-c3ccc4ncc(Cc5c(F)cc6ncccc6c5F)n4n3)cn2)CC1` [Example 246, 5,7-Difluoro-6-{6-[1-(1-methyl-piperidin-4-yl)-1H-pyrazol-4-yl]-imidazo[1,2-b]pyridazin-3-ylmethyl}-quinoline], the IC50 is below 3 nM.
